Assay results from patent US6365585B1, “Phosphodiesterase IV-inhibiting diazepinoindoles” (Warner-Lambert Company, priority 1998, dated 2002).

Assays:
[1] = Metabolism in vitro of MPTDI, human hepatic microsomes (HPLC-MS profile); format: in vitro ADME; settings: incubation of MPTDI with human hepatic microsomes
Method: (§1) The profile and the identification of the metabolites of MPTDI were obtained after incubation of the product with human hepatic microsomes. The results were compared with those obtained on rat hepatic microsomes. The metabolic profiles obtained by HPLC coupled to a mass spectrometer in these two species are represented in FIG. 1. In some cases, the mass spectra obtained were compared with those of reference substances synthesized by the chemical route. It is deduced therefrom that the profiles obtained on human and rat microsomes are similar: Table 1 collates the measured proportions of the metabolites for these two species.

[2] = Metabolism in vitro of MPTDI, rat hepatic microsomes (HPLC-MS profile); format: in vitro ADME; settings: incubation of MPTDI with rat hepatic microsomes
Method: as §1

Row | Compound | Proportions (%) of the metabolites obtained on human hepatic microsomes [1] | Proportions (%) of the metabolites obtained on rat hepatic microsomes [2] | melting point
1 | Cc1cc2c3c(c1)C(c1ccccc1)=N[C@@H](NC(=O)c1ccncc1)C(=O)N3CC2 [MPTDI, (3R)-N-(9-methyl-4-oxo-1-phenyl-3,4,6,7-tetrahydro[1,4]diazepino[6,7,1-hi]indol-3-yl)isonicotinamide, reference compound] | 79% | 38.2% | 
2 | O=C(NC1N=C(c2ccccc2)c2cc(CO)cc3c2N(CC3)C1=O)c1ccncc1 (centres unmarked) [OH on 9-CH3, N-(9-hydroxymethyl-4-oxo-1-phenyl-3,4,6,7-tetrahydro[1,4]diazepino[6,7,1-hi]indol-3-yl)isonicotinamide] | 4.2% | 24.3% | 260 °C
